{
  "source": "patent US20240325381A1",
  "about": "(GUANGZHOU INSTITUTES OF BIOMEDICINE AND HEALTH, CHINESE …, priority 2021, published 2024)",
  "type_in_all_cases": "cell-based",
  "key": {"[1]": {"tested_on": "Mito-GFP-labeled neural precursor cells", "assay": "Clearance of mitochondria by flunarizine in mito-GFP-labeled neural precursor cells (confocal microscopy)", "details": "for mitochondrial morphology in neural precursor cells: 3 days", "description": "Mito-GFP-labeled neural precursor cells were plated on a 6-well plate, and the surface coverage of the neural precursor cells on the 6-well plate was 80%. […] Then, the cells were detected with a confocal microscopy and the clearance efficiency of the mitochondrial was observed.\nThe mito-GFP-labeled neural precursor cells were plated on a 6-well plate, and the surface coverage of the neural precursor cells on the 6-well plate was 80%. […] Then, the results were detected with a confocal microscope and the efficiency of the mitochondrial clearance was observed."}, "[2]": {"tested_on": "neural precursor cells labeled with LC3-GFP and mito-DsRed", "assay": "Co-localization of mitochondria with LC3-GFP labeled autophagosomes (confocal microscope)", "details": "15 μM flunarizine, 12 hours", "experimental": "The neural precursor cells labeled with LC3-GFP and mito-DsRed were plated on the glass slides, and the surface coverage of the neural precursor cells on the glass slides was 80%. […] Then, the results were detected with a confocal microscope."}, "[3]": {"tested_on": "Mito-GFP-labeled neural precursor cells", "assay": "Mitochondrial clearance after knockdown of classic mitophagy core genes in neural precursor cells", "details": "15 μM flunarizine, 3 days; shTRC, shATG5-a/b, shPINK1-a/b, shFUNDC1-a/b", "description": "The corresponding classic mitophagy core genes (including shTRC, shATG5-a, shATG5-b, shPINK1-a, shPINK1-b, shFUNDC1-a, and shFUNDC1-b) in mito-GFP-labeled neural precursor cells were knocked down. Then, the cells were plated on a glass slide, the surface coverage of neural precursor cells on the glass slide was 80%. […] Thereafter, the cells were detected with a confocal microscope. The specific results are illustrated in FIG. 3B and FIG. 3C."}, "[4]": {"tested_on": "Mito-GFP-labeled mouse embryonic fibroblasts (MEF cells)", "assay": "Mitochondrial clearance in MEF cells with mitophagy core genes knocked off", "details": "15 μM flunarizine, 3 days; WT, ATG5, PARK2, FUNDC1", "description": "Mito-GFP-labeled mouse embryonic fibroblasts (MEF cells) were plated on a glass slide. The corresponding classic mitophagy core genes (including WT, ATG5, PARK2, and FUNDC1) in the MEF cells were knocked off. The surface coverage of the cells on the glass slide was 80%. […] Then, the cells were detected with a confocal microscope."}, "[5]": {"tested_on": "neural precursor cells labeled with LAMP1-GFP and mito-DsRed", "assay": "Mitochondria entering lysosomes (LAMP1-GFP / mito-DsRed overlap)", "details": "15 μM flunarizine, 12 hours", "description": "The neural precursor cells labeled with LAMP1-GFP and mito-DsRed were plated on a glass slide, and the surface coverage of the neural precursor cells on the glass slide was 80%. […] Then, the results were detected with a confocal microscope."}, "[6]": {"tested_on": "Mito-DsRed-labeled neural precursor cells", "assay": "Mitochondrial efflux (mitochondria, lysosome and cell membrane overlap)", "details": "15 μM flunarizine, 24 hours; Lysotraker DeepRed, FM1-43", "experimental": "Mito-DsRed-labeled neural precursor cells were plated on a glass slide, and the surface coverage of the neural precursor cells on the glass slide was 80%. […] The final concentration was 15 μM. The lysosomes were labeled with Lysotraker DeepRed, the cell membranes were labeled with FM1-43, and then the results were detected with a confocal microscope."}},
  "data": [
    {"smiles": "Fc1ccc(C(c2ccc(F)cc2)N2CCN(C/C=C/c3ccccc3)CC2)cc1", "note": "[flunarizine]", "values": [
      {"measurement": "removal of intracellular mitochondria", "setting": "[1]; 15 μM flunarizine, 3 days of treatment, 80% surface coverage", "result": "substantially completely removed"},
      {"measurement": "concentration that can effectively remove the mitochondria in the cells", "setting": "[1]; after 3 days of treatment, tested 5, 10, 15, 20, 25 μM", "result": "above 10 μM"},
      {"measurement": "removal of intracellular mitochondria", "setting": "[1]; contact time more than 3 days", "result": "completely removed"},
      {"measurement": "mitochondrial morphology in neural precursor cells", "setting": "[1]; final concentration 15 μM", "result": "basically not observed"},
      {"measurement": "mitochondrial morphology in neural precursor cells", "setting": "[1]; final concentration 20 μM", "result": "basically not observed"},
      {"measurement": "mitochondrial morphology in neural precursor cells", "setting": "[1]; final concentration 25 μM", "result": "basically not observed"},
      {"measurement": "co-localization of mitochondria with LC3-GFP labeled autophagosomes", "setting": "[2]", "result": "not co-localized with LC3-GFP labeled autophagosomes"},
      {"measurement": "mitochondrial clearance after knockdown of mitophagy core genes", "setting": "[3]", "result": "knockdown of related genes could not inhibit mitochondrial clearance"},
      {"measurement": "mitochondrial clearance in MEF cells with mitophagy genes knocked off", "setting": "[4]", "result": "knockdown of mitophagy-related genes cannot inhibit mitochondrial clearance"},
      {"measurement": "overlap of LAMP1 and mito (mitochondria entering lysosomes)", "setting": "[5]", "result": "wrapped by lysosomes"},
      {"measurement": "mitochondrial efflux vesicles on the cell surface", "setting": "[6]", "result": "efflux vesicles wrapped around mitochondria were formed"}
    ]}
  ]
}
